The subject of this experiment is DSS-Induced inflammatory Bowel Disease Models in Mice. Nature of the experiment: DSS-induced inflammatory bowel disease model in mice (Biological Example 3, 1.0-1.5% DSS). Format: in vivo, C57BL/6 mice. The following applies: 30 mg/Kg i.g. Q.D. How it is done:
40 healthy female C57BL/6 mice having weight of 16-19 g were randomly divided into 4 groups in accordance with weight. There were 10 mice in each group (see Table 6 below). The first day of the experiment was recorded as Day 0. The administration regimen and induction regimen were detailed in Table 6. The change in weight of experimental animals was recorded every day. […] Samples of animal colonic tissues were obtained to measure the length. One-way ANOVA analysis of mice weights was performed by SPSS22. Statistical analyses between groups were performed. Mann-Whitney U non-parametric test was performed on the length of colon.
Calculation Formula of Inhibitory Rate of Colonic Reduction: (Length of Colon in Administration Group−Length of Colon in Model Group)/(Length of Colon in Blank Group−Length of Colon in Model Group)

The mark [1] stands for this setting: DSS 1.0% days 0-4, 1.5% days 5-9.

Regarding `COCCN1C(=O)CCC(N2C(=O)c3ccc(N)cc3C2=O)C1=O` (stereo not shown) [Example 7, 5-amino-2-(1-(2-methoxyethyl)-2,6-dioxopiperidin-3-yl)isoindolin-1,3-dione], the “body weights compared with model control group” value was “higher than that of the model control group”. Also, under setting [1], the “Average Length of Colon (Mean ± SD)” value stood at 6.4 ± 0.4 cm and the “Inhibitory Rate of Colonic Reduction” value turned out to be 63.6%. Further, where the note is “Day 0”, the “Body Weights of Experimental Mice (Mean ± SD)” value (shortened to “Body Weights … (Mean ± SD)”) came out at 17.4 ± 0.8 g. Further, the “Body Weights … (Mean ± SD)” value (Day 1) came out at 17.5 ± 0.7 g. Besides, the “Body Weights … (Mean ± SD)” value (Day 2) is 18.2 ± 0.8 g. For the same molecule, the “Body Weights … (Mean ± SD)” value (Day 3) is given as 17.8 ± 0.8 g. The “Body Weights … (Mean ± SD)” value (Day 4) is 17.7 ± 0.7 g. For the same molecule, the “Body Weights … (Mean ± SD)” value (Day 5) worked out at 17.9 ± 0.8 g. For the same molecule, the “Body Weights … (Mean ± SD)” value (Day 6) was found to be 17.8 ± 0.8 g. In addition, the “Body Weights … (Mean ± SD)” value (Day 7) is on record as 17.9 ± 0.8 g. For the same molecule, the “Body Weights … (Mean ± SD)” value (Day 8) is given as 17.4 ± 0.7 g. Also, the “Body Weights … (Mean ± SD)” value (Day 9) was found to be 17.4 ± 0.7 g. Moreover, under “Day 10”, the “Body Weights … (Mean ± SD)” value is 16.8 ± 0.9 g. In addition, the “Body Weights … (Mean ± SD)” value (Day 11) amounted to 16.8 ± 1.0 g. Also, the “Body Weights … (Mean ± SD)” value (Day 12) came to 17.3 ± 1.0 g.
